Assay results taken from article PMC11859419, “New UB006 Derivatives With Higher Solubility and Cytotoxic Activity in Ovarian Cancer Cells” (Pharmaceuticals, 2025).
Converted amounts (≈) assume the structure as drawn. Read-outs that look alike come from different tables or passages of the source.

Assays:
OVCAR-3 cell line = experiment: MTT cytotoxicity assay in OVCAR-3 ovarian cancer cells; format: cell-based, human; settings: for IC50: Homo sapiens, OVCAR-3, 72 h incubation, MTT, mean ± SEM of three experiments; for Fold increase in cytotoxicity compared with (±)-UB006: OVCAR-3, ratio of IC50 values
Method: OVCAR-3 (human ovary carcinoma, ATC HTB-161, passage number 20) cells were cultured at 37 °C in a humidified atmosphere of 5% CO2 in Dulbecco’s Modified Eagle Medium containing 4.5 g/L of glucose and supplemented with glutamine, 10% heat-inactivated fetal bovine serum, 100 units/mL of penicillin, and […] of streptomycin. The culture was passaged twice a week through gentle trypsinization. Cells were seeded in 10 cm culture dishes and grown to confluence. An MTT cytotoxicity assay was performed to evaluate the cytotoxic effect of the compounds. A total of 2 × 10^3 cells/well were plated in 96-well plates in […] of culture medium. After 24 h, the medium was removed, and cells were incubated for 72 h in fresh medium with different concentrations (0.5–20 µM) of the different compounds. DMSO was used as a blank at a final concentration of 0.5%. The cells were then incubated for 3 h with […] of fresh medium and […] of MTT dissolved in phosphate-buffered saline to a final concentration of 5 mg/mL. Following treatment, the supernatants were carefully removed, and the MTT–formazan crystals were solubilized by adding […] of DMSO. The absorbance was measured at 570 nm.
Samples were incubated for 3 days with increasing concentrations of the different compounds, followed by an MTT assay to quantify cell survival.

FAS [1] = molecular target: T1, FAS (Rattus norvegicus, UniProt P12785); experiment: Spectrophotometric FAS activity assay in rat liver extracts; format: biochemical; settings: rat liver extracts (210 µg), preincubated 30 min at 30 °C, mean ± SEM of three experiments
T1 construct: Cytosolic hepatic extracts obtained from rat (210 µg) were preincubated at 30 °C for 30 min; from tissue; host or cells: rat liver (cytosolic, FAS-enriched hepatic extract)
Method: For in vitro experiments, FAS was purified from rat liver following the protocol previously described by Linn. FAS activity was measured using a spectrophotometric method, as previously described. […] NADPH (121 µM) and acetyl-CoA (61 µM) in potassium phosphate buffer (pH 7.2) were added to preincubated enzyme and equilibrated at 37 °C for 3 min. The reaction was initiated through the addition of malonyl-CoA (55 µM). The total reaction volume was 330 µL. Oxidation of NADPH was measured at 340 nm at 37 °C for 10 min.
Figure 3 FAS activity assay in rat liver extracts. Representation of % of remaining FAS activity of spectrophotometric activity assay.

[2] = Turbidimetry solubility assay; format: physicochemical; settings: for solubility at 2 h: kinetic from dmso stock, 2 h at 37 °C, tested 25 μM–2 mM; for Solubility over tested concentrations: tested concentrations 25–2000 µM
Method: This effectively created two regression lines, with the intersection corresponding to the solubility of the compound.
The compounds were incubated for 2 h at 37 °C in a Thermoshaker (Biosan®, Riga, Latvia). Solubility was assessed through turbidimetry at 600 nm using Varioskan Lux® (Thermo Scientific®, Waltham, MA, USA). The approximate solubility was calculated by finding the intersection of the two regression lines formed before and after the curve tendency change due to precipitation of the compounds.

[3] = set-up: method as in earlier work; settings: cited from earlier work
FAS [4] = molecular target: T1, FAS; set-up: method as in PMID 23620264; settings: previously described by the group; read-out: IC50 (FAS inhibition); cited from earlier work

T1 sequence (P12785 whole entry): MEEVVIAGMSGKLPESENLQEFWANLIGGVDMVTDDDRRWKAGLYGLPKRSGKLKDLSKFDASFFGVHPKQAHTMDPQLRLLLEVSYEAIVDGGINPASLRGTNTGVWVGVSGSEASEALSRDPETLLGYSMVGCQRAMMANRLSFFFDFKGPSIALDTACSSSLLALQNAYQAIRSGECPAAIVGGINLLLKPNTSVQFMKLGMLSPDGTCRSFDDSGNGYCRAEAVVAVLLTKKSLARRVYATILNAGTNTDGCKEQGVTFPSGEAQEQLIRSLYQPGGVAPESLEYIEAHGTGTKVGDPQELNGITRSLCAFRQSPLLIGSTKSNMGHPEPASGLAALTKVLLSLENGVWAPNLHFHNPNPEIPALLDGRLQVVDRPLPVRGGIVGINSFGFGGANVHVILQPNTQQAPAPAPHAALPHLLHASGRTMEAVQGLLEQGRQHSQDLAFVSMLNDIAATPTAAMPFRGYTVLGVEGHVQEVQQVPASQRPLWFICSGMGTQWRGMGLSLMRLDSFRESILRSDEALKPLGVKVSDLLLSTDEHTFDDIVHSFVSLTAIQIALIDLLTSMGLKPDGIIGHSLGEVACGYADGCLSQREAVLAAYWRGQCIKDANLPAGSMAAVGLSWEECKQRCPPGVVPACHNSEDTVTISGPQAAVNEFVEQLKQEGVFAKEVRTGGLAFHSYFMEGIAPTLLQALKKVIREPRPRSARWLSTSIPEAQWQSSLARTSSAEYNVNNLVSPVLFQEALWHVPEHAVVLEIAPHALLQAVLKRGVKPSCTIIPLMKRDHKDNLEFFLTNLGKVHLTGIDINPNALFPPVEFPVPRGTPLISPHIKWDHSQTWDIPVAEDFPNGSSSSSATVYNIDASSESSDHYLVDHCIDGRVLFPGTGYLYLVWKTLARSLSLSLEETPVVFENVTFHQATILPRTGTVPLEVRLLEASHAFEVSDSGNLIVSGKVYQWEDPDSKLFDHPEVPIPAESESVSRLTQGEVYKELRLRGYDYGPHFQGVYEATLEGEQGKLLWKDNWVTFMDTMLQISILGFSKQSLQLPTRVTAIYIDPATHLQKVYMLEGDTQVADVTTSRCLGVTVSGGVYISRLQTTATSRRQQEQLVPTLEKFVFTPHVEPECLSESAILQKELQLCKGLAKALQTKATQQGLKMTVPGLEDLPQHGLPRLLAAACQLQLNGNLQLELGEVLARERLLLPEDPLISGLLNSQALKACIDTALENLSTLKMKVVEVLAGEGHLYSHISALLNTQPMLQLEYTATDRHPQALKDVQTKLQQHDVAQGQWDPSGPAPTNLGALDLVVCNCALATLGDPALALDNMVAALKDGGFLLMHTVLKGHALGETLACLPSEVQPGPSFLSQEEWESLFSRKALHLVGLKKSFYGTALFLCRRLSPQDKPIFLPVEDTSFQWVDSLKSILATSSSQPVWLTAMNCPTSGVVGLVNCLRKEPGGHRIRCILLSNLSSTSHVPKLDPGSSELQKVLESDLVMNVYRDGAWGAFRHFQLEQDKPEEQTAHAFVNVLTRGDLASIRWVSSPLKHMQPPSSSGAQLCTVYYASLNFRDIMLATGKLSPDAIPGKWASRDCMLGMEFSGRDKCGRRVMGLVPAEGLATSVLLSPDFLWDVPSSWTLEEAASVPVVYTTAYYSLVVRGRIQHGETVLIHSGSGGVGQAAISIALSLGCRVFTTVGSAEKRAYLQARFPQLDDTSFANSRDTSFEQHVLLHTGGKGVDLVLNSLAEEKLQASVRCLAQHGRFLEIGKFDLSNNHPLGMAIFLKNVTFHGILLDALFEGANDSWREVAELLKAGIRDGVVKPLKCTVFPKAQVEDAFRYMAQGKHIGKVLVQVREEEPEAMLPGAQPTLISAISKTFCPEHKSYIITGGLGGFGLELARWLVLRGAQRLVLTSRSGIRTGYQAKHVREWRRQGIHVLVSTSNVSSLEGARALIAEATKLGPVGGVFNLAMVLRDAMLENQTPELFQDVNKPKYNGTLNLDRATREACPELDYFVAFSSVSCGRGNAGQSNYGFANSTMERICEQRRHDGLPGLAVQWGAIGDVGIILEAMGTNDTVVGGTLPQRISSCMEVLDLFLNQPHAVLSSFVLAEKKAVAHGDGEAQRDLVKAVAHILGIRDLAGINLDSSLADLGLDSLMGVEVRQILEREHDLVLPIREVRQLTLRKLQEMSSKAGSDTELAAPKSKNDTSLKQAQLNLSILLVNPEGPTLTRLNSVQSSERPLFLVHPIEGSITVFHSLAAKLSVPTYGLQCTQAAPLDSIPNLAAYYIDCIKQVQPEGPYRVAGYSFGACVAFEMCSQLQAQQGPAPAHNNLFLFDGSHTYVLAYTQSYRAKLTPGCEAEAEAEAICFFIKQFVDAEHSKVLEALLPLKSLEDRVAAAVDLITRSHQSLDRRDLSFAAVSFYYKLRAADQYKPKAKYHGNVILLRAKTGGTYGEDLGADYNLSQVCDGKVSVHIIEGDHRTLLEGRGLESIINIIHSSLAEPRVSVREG

Q: What does the source list for `C=C1C(=O)O[C@@H](CCCCCCCC)[C@H]1C(O)C(O)CO` (mixture of isomers) [(±)-UB036, (4RS,5SR)-3-methylene-5-octyl-4-(1,2,3-trihydroxypropyl)dihydrofuran-2(3H)-one]?
A: IC50 (OVCAR-3 cell line): 5.5 ± 0.8 µM; IC50 (FAS [1]): 458 ± 54 µM; solubility at 2 h ([2]; water with 1% DMSO): > 2000 µM; Solubility over tested concentrations [2]: soluble at all tested concentrations; Fold increase in solubility compared with (±)-UB006 ([2]; water with 1% DMSO): ≥ 4 fold

Q: Which IC50 (OVCAR-3 cell line) does the source give for `C=CC(O)[C@H]1C(=C)C(=O)O[C@H]1CCCCCCCC` (mixture of isomers) [(±)-UB034, (4RS,5SR)-4-(1-hydroxyallyl)-3-methylene-5-octyldihydrofuran-2(3H)-one] here?
A: 12.3 ± 1.2 µM

Q: What about the solubility at 2 h ([2]; water with 1% DMSO) of the same molecule?
A: 88 µM (≈ 23.4 µg/mL)

Q: With `C=C1C(=O)O[C@@H](CCCCCCCC)[C@H]1[C@@H](O)CO` (racemic) [(±)-UB035, (4RS,5SR)-4-((RS)-1,2-dihydroxyethyl)-3-methylene-5-octyldihydrofuran-2(3H)-one] as the molecule, how does the IC50 (OVCAR-3 cell line) read?
A: 2.1 ± 0.2 µM

Q: What about the “Fold increase in cytotoxicity compared with (±)-UB006” value (OVCAR-3 cell line) of the same molecule?
A: 2.5 fold

Q: What about the IC50 (FAS [1]) of the same molecule?
A: 565 ± 62 µM

Q: And the solubility at 2 h ([2]; water with 1% DMSO)?
A: > 2000 µM

Q: What about the “Solubility over tested concentrations” value [2] of the same molecule?
A: soluble at all tested concentrations

Q: With `C=C1C(=O)O[C@@H](CCCCCCCC)[C@H]1C(O)CCCCCC` (mixture of isomers) [(±)-UB033, (4RS,5SR)-4-(1-hydroxyheptyl)-3-methylene-5-octyldihydrofuran-2(3H)-one] as the molecule, how does the IC50 (OVCAR-3 cell line) read?
A: 13.6 ± 1.3 µM

Q: And the solubility at 2 h ([2]; water with 1% DMSO)?
A: 76 µM (≈ 24.7 µg/mL)

Q: Which “Solubility in basic aqueous media” value ([3]; basic aqueous media) does the source give for `C=C1C(=O)O[C@@H](CCCCCCCC)[C@@H]1C(=O)O` (racemic) [(±)-C75] here?
A: < 100 µg/mL

Q: What about the Solubility in water ([3]; water) of the same molecule?
A: insoluble in water

Q: And the IC50 (FAS [4])?
A: 460 ± 56 µM

Q: For `C=C1C(=O)O[C@@H](CCCCCCCC)[C@H]1C(C)O` (mixture of isomers) [(±)-UB031, (4RS,5SR)-4-(1-hydroxyethyl)-3-methylene-5-octyldihydrofuran-2(3H)-one], which IC50 (OVCAR-3 cell line) is on record?
A: 3.6 ± 0.2 µM

Q: What about the “Fold increase in cytotoxicity compared with (±)-UB006” value (OVCAR-3 cell line) of the same molecule?
A: 1.4 fold

Q: What about the solubility at 2 h ([2]; water with 1% DMSO) of the same molecule?
A: 473 µM (≈ 120 µg/mL)

Q: Which IC50 (OVCAR-3 cell line) does the source give for `C=C1C(=O)O[C@@H](CCCCCCCC)[C@H]1C(O)CC` (mixture of isomers) [(±)-UB032, (4RS,5SR)-4-(1-hydroxypropyl)-3-methylene-5-octyldihydrofuran-2(3H)-one] here?
A: 10.7 ± 0.9 µM

Q: What about the solubility at 2 h ([2]; water with 1% DMSO) of the same molecule?
A: 390 µM (≈ 105 µg/mL)

Q: Which solubility at 2 h ([2]; water with 1% DMSO) does the source give for `C=C1C(=O)O[C@@H](CCCCCCCC)[C@@H]1CO` (racemic) [(±)-UB006, (4SR,5SR)-4-(hydroxymethyl)-3-methylene-5-octyldihydrofuran-2(3H)-one] here?
A: 550 µM (≈ 132 µg/mL)
